This is an account of results in patent US20180291043A1, “BENZOCYCLOOCTENE-BASED AND INDENE-BASED ANTICANCER AGENTS” (BAYLOR UNIVERSITY, priority 2016, published 2018).

The structures appear in SMILES notation. Entries after “also recorded” stand apart in the source; their conditions may differ. Like-named read-outs stand apart in the source and are kept apart here.

In data set [1] the test system is purified bovine brain tubulin. In words: Inhibition of tubulin polymerization (tubulin assembly). The settings on record: 10 μM tubulin, extent of assembly after 20 min at 30° C.; read-out: Inhibition of tubulin polymerization IC50 (μM) ± SD. It counts as biochemical. The protocol: Inhibition of Tubulin Polymerization
Tubulin assembly experiments were performed in 0.25 mL reaction mixtures (final volume) (Hamel, 2003). The mixtures contained 1 mg/mL (10 μM) purified bovine brain tubulin, 0.8 M monosodium glutamate (pH 6.6), 4% (v/v) dimethyl sulfoxide, 0.4 mM GTP, and different compound concentrations. All reaction components except GTP were preincubated for 15 min at 30° C. in 0.24 mL. The mixtures were cooled to 0° C., and 10 μL of 10 mM GTP were added. Reaction mixtures were transferred to cuvettes held at 0° C. in Beckman DU-7400 and DU-7500 spectrophotometers equipped with electronic temperature controllers. The temperature was jumped to 30° C., taking about 30 s, and polymerization was followed at 350 nm for 20 min.

Another data set relates to DU-145. Put plainly: SRB assay, growth inhibition, DU-145. It counts as cell-based, human. The settings on record: 48 h treatment, average of n ≥ 3. The protocol:
(§1) Inhibition of growth of human cancer cells was assessed using the sulforhodamine B assay (SRB), as described in Monks et al., 1991. Cancer cell lines (DU-145, SK-OV-3, and NCI-H460) were plated at 7500-8000 cells/well into 96-well plates using DMEM supplemented with 5% fetal bovine serum/1% gentamicin sulfate and incubated for 24 h at 37° C. in a humidified incubator. Compound serial dilutions were then added. After 48 h treatment, the cells were fixed with trichloroacetic acid (10% final concentration), washed, dried, stained with sulforhodamine B dye (Acid red 52), washed to remove excess dye, and dried. SRB dye was solubilized, and absorbances were measured at wavelength 540 nm and normalized to values at wavelength 630 nm using an automated Biotek plate reader.
(In general: The SRB assay estimates cell density from bound dye.)

The next data set deals with SK-OV-3. In words: SRB assay, growth inhibition, SK-OV-3. The data set is classed as cell-based, human. Conditions: 48 h treatment, average of n ≥ 3. As to the method: as §1
For the next data set, the system named is NCI-H460. In words: SRB assay, growth inhibition, NCI-H460. It counts as cell-based, human. Conditions: 48 h treatment, average of n ≥ 3. The protocol:
as §1

The subject of data set [2] is MCF7-luc-GFP-mCherry breast tumor. In words: Histological assessment of tumor necrosis (H&E). It counts as in vivo, SCID mice. Conditions: 120 mg/kg, 48 h post treatment. As to the method:
Following the 48 h BLI data acquisition, the tumors were excised, bisected and fixed in 4% paraformaldehyde solution. Tumor tissue was processed for paraffin embedding, sectioned and stained by routine methods. H&E staining was performed on one cross section from each tumor. Whole mount high resolution microscopy was obtained using a Zeiss Axioscan Z1 digital slide scanner. […] Thus, analogue 24 may be a therapeutically useful VDA.

Data set [3] concerns purified bovine brain tubulin. Conditions: Data from Pettit et al., 2000; read-out: Inhibition of tubulin polymerization IC50 (μM) ± SD; cited from earlier work.
Data set [4] deals with MCF7-luc-GFP-mCherry breast tumor. In words: Bioluminescence imaging (BLI) of vascular disruption in tumor-bearing mice. It counts as in vivo, SCID mice. The settings on record: for reduction in bioluminescence (decrease compared to baseline or saline control): single dose 120 mg/kg ip, 4 h after compound injection, p<0.05. The protocol:
Human breast cancer cells, MCF7-luc-GFP-mCherry (ATCC), were transfected sequentially with a lentivirus containing firefly luciferase reporter, GFP and mCherry reporter genes, as described in Liu et al., 2012. Highly expressing stable clones were isolated. Induction of tumors was carried out by injecting 10^6 cells mixed with 50% Matrigel™ (BD Biosciences, San Jose, Calif.) into the right upper ventral mammary fat pads of female SCID-NOD mice (UTSW breeding colony). Tumors were allowed to grow to a size of 10-12 mm in diameter, determined by calipers, before selection for BLI. All animal procedures were approved by the University of Texas Southwestern Medical Center Institutional Animal Care and Use Committee.
Bioluminescence imaging was carried out as described in Liu et al., 2012. Briefly, anesthetized, tumor bearing mice (O2, 2% isoflurane, Henry Schein Inc., Melville, N.Y.) were injected subcutaneously in the fore-back neck region with 80 μL of a solution of luciferase substrate, D-luciferin (sodium salt, 120 mg/kg, in saline, Gold Biotechnology, St. Louis, Mo.). Mice were maintained under anesthesia (2% isoflurane in oxygen, 1 dm^3/min), while baseline bioluminescence imaging was performed using a Caliper Xenogen IVIS® Spectrum (Perkin-Elmer, Alameda, Calif.). A series of BLI images was collected over 35 min using the following settings: auto exposure time, f-stop=2, Field of view=D, binning=4 (medium). Light intensity-time curves obtained from these images were analyzed using Living Image® software and light emission compared based on area under the light emission curve. Mice were injected intraperitoneally with either 120 μL of saline (vehicle), CA4P (provided by Mateon Therapeutics, Inc.; 120 mg/kg in saline as used in Mason et al., 2011 or analogue 24 (120 mg/kg) in saline immediately after baseline BLI. Bioluminescence imaging was repeated, with new luciferin injections 4, 24, and 48 h later.
Bioluminescence imaging (BLI) is a highly valuable modality with diverse applications in a wide range of biological models and systems. BLI is a particularly useful tool for assessing and quantifying in vivo blood flow reduction following treatment with a VDA. In the current study MCF7 human breast cancer cells, which had been previously transfected stably to express the enzyme luciferase, as well as two fluorescent proteins, as designated by MCF7-luc-GFP-mCherry were implanted in SCID mice. Since the luciferase substrate luciferin can be delivered to the tumor via the blood stream, damage to the vessels by a VDA can be quantified by measurement of reduced bioluminescence upon injection of luciferin. […]

Another data set concerns tubulin. In words: Colchicine binding assay (inhibition of [3H]colchicine binding to tubulin). Conditions: inhibitor at 5 μM; 1.0 μM tubulin, 5.0 μM [3H]colchicine. The protocol: Inhibition of [^3H]colchicine binding to tubulin was measured using reaction mixtures (100 μL each) containing 1.0 μM tubulin, 5.0 μM [^3H]colchicine (from Perkin-Elmer), 5% (v/v) dimethyl sulfoxide, […], and components that stabilize the colchicine binding activity of tubulin (Hamel et al., 1981) (1.0 M monosodium glutamate [adjusted to pH 6.6 with HCl in a 2.0 M stock solution], 0.5 mg/mL bovine serum albumin, 0.1 M glucose-1-phosphate, 1.0 mM MgCl2, and 1.0 mM GTP). […] Reactions were stopped with 2.0 mL of ice-cold water, and the reaction mixtures were placed on ice. Each sample was poured onto a stack of two DEAE-cellulose filters (from Whatman), followed by 6 mL of ice-cold water. The samples were aspirated under reduced vacuum. The filters were washed three times with 2 mL water and placed into vials containing 5 mL of Biosafe II scintillation cocktail. Samples were counted 18 h later in a Beckman scintillation counter. Samples with inhibitors were compared to samples with no inhibitor, and percent inhibition was determined. All samples were corrected for the amount of radiolabel bound to the filters in the absence of tubulin.

Data set [5] concerns human cancer cell lines (DU-145, SK-OV-3, NCI-H460). Put plainly: SRB cytotoxicity, statements over the three human cancer cell lines. The data set is classed as cell-based. Conditions: all three human cancer cell lines. The protocol:
as §1

A short description of data set [6]: Limited dose escalation study (tolerability). It counts as in vivo, non-tumor bearing SCID mice. Conditions: dose of 120 mg/kg; dose escalation 60-150 mg/kg; MTD not yet determined.

Usually IC50 stands for the concentration that inhibits the measured activity by half. In general, GI50 refers to the concentration that inhibits growth by half.

As for `COc1ccc2c(c1)CC=C2c1cc(OC)c(OC)c(OC)c1` [Compound 29, 6-Methoxy-3-(3′,4′,5′-trimethoxyphenyl)-1H-indene], the IC50 in [1] is above 20 µM. Also, the GI50 is 4660 nM in the data set on DU-145 (Homo sapiens, DU-145); 6150 nM with SK-OV-3 (Homo sapiens, SK-OV-3); 4020 nM in the data set on NCI-H460 (Homo sapiens, NCI-H460).
Consider `COc1ccc(/C=C\c2cc(OC)c(OC)c(OC)c2)cc1OP(=O)(O)O` [CA4P, Combretastatin A-4P, reference compound], for which, in [2], the “tumor necrosis (H&E staining) compared with saline control” value is recorded as “much more extensive necrosis”. Also, the IC50 in [3] is above 20 µM. The GI50 is 3.36 nM in the data set with DU-145, 1.9 nM in the data set on SK-OV-3 and 2.82 nM in the data set on NCI-H460. Also, the “reduction in bioluminescence (decrease compared to baseline or saline control)” value in data set [4] is “approximately 80%”.
`COc1ccc2c(c1O)CC=C2c1cc(OC)c(OC)c(OC)c1` [Compound 31, 6-Methoxy-3-(3′,4′,5′-trimethoxyphenyl)-1H-inden-7-ol]: the IC50 in [1] came to 11 µM. In addition, the GI50 with DU-145 (Homo sapiens, DU-145) worked out at 362 nM; in the data set on SK-OV-3 (Homo sapiens, SK-OV-3), 704 nM; in the data set on NCI-H460 (Homo sapiens, NCI-H460) it was 388 nM. For the same compound, the “% Inhibition of colchicine binding ± SD” value in the data set with tubulin is 17 ± 5 (5 μM) %.
As to `COc1cc(C2=CCc3c2ccc(OC)c3OC)cc(OC)c1OC` [Compound 28, 6,7-Dimethoxy-3-(3′,4′,5′-trimethoxyphenyl)-1H-indene], the IC50 in data set [1] was above 20 µM. In addition, the GI50 with DU-145 (Homo sapiens, DU-145) is 34600 nM; in the data set with SK-OV-3 (Homo sapiens, SK-OV-3), 9460 nM; in the data set on NCI-H460 (Homo sapiens, NCI-H460), 42200 nM.
On to `COc1ccc2c(c1O)CCCCC=C2c1cc(OC)c(OC)c(OC)c1` [Compound 23, 1-Hydroxy-2-methoxy-5-(3′,4′,5′-trimethoxyphenyl)-benzocyclooct-5-ene], for which, in data set [1], the IC50 turned out to be 1.2 µM. For the same compound, the GI50 turned out to be 105 nM with DU-145 (Homo sapiens, DU-145); 81.1 nM in the data set on SK-OV-3 (Homo sapiens, SK-OV-3); 107 nM in the data set on NCI-H460 (Homo sapiens, NCI-H460). The “GI50 values / cytotoxicity range in words” value in data set [5] is recorded as “submicromolar”. Besides, the “% Inhibition of colchicine binding ± SD” value with tubulin was 78%.
In the case of `COc1cc(C2=CCc3c2ccc(OC)c3OP(=O)(O)O)cc(OC)c1OC` [Compound 32, Sodium 6-methoxy-3-(3′,4′,5′-trimethoxyphenyl)-1H-inden-7-yl phosphate], in data set [1], the 50% inhibitory concentration (IC50) was above 20 µM. The GI50 came to 3340 nM in the data set on DU-145 (Homo sapiens, DU-145); 334 nM in the data set on SK-OV-3 (Homo sapiens, SK-OV-3); 1500 nM in the data set with NCI-H460 (Homo sapiens, NCI-H460).
Take `COc1ccc2c(c1)CCCCC=C2c1cc(OC)c(OC)c(OC)c1` [Compound 21, 2-Methoxy-5-(3′,4′,5′-trimethoxyphenyl)-benzocyclooct-5-ene]: the IC50 in [1] was 3 ± 0.1 µM. For the same compound, the concentration for 50% growth inhibition (GI50) was 570 nM in the data set with DU-145 (Homo sapiens, DU-145); 400 nM in the data set with SK-OV-3 (Homo sapiens, SK-OV-3); 431 nM with NCI-H460 (Homo sapiens, NCI-H460). The “% Inhibition of colchicine binding ± SD” value with tubulin is 29 ± 5 (5 μM) %.
Take `COc1ccc2c(c1O)CCCC=C2c1cc(OC)c(OC)c(OC)c1` [KGP18, reference compound]: the IC50 in [1] is 1.4 µM. In addition, the GI50 in the data set with DU-145 worked out at 0.0249 nM; in the data set with SK-OV-3 it was 0.0543 nM; with NCI-H460, 0.0418 nM. For the same compound, the results for the “GI50 values / cytotoxicity range in words” value in data set [5] and in [5] (listed as KPG18) were “subnanomolar” and “sub-nM”, respectively.
For the compound `COc1cc(C2=CCCCCc3c2ccc(OC)c3OC)cc(OC)c1OC` [Compound 20, 1,2-Dimethoxy-5-(3′,4′,5′-trimethoxyphenyl)-benzocyclooct-5-ene], the IC50 in [1] amounted to 4.5 ± 0.5 µM. For the same compound, the GI50 in the data set on DU-145 (Homo sapiens, DU-145) is 448 nM; with SK-OV-3 (Homo sapiens, SK-OV-3), 512 nM; with NCI-H460 (Homo sapiens, NCI-H460), 395 nM. For the same compound, the “% Inhibition of colchicine binding ± SD” value with tubulin is recorded as 31 ± 0.6 (5 μM) %.
As to `COc1cc(C2=CCCCCc3c2ccc(OC)c3OP(=O)([O-])[O-])cc(OC)c1OC.[Na+].[Na+]` [Compound 24, Sodium 2-methoxy-5-(3′,4′,5′-trimethoxyphenyl)-benzocyclooct-5-en-1-yl phosphate], the concentration for half-maximal inhibition (IC50) in data set [1] was above 20 µM. Further, the “tumor necrosis (H&E staining) compared with saline control” value in data set [2] was “much more extensive necrosis”. For the same compound, the 50% growth inhibitory concentration (GI50) was found to be 41 nM in the data set on DU-145 (Homo sapiens, DU-145); 36.6 nM in the data set with SK-OV-3 (Homo sapiens, SK-OV-3); 26 nM in the data set with NCI-H460 (Homo sapiens, NCI-H460). Moreover, the “bioluminescence intensity at 24 and 48 h” value in [4] (120 mg/kg ip, 24 and 48 h post administration, phosphate) is “the effect continued at both 24 and 48 h; also recorded: remained significantly below baseline values”. In addition, in [4] (120 mg/kg, 4 h post administration, phosphate), the “vascular shutdown / reduction of blood flow as evidenced by BLI” value was “significant vascular shutdown; also recorded: significant in vivo reduction of blood flow”. Besides, the “reduction in bioluminescence (decrease compared to baseline or saline control)” value in [4] is “approximately 80%”. In addition, the “GI50 values / cytotoxicity range in words” value in [5] is reported as “submicromolar”. The tolerability of dose entry in data set [6] is on record as “tolerated”.
